Results published in patent US20100041699A1, “MICROCRYSTALLINE (5-FLUORO-2-METHYL-3-QUINOLIN-2-YLMETHYL-INDOL-1-YL) ACETIC ACID” (OXAGEN LIMITED, priority 2005, published 2010).

Key:
Assay type in all cases: physicochemical
[1] = Crystal sizes measured by laser diffraction; conditions: for Particle Diameter, 10% particles under given diameter / Particle Diameter, 50% particles under given diameter / Particle Diameter, 90% particles under given diameter: laser diffraction; for Particle Diameter, 10% particles under given diameter: 10% of particles under given diameter; for Particle Diameter, 50% particles under given diameter: 50% of particles under given diameter; for Particle Diameter, 90% particles under given diameter: 90% of particles under given diameter
Description: The sizes of the crystals of one batch of Product A ((5-fluoro-2-methyl-3-quinolin-2-ylmethylindo-1-yl)-acetic acid recrystallised from DMSO/water as described above in Example 1, step 4) and three batches of Product B ((5-fluoro-2-methyl-3-quinolin-2-ylmethylindo-1-yl)-acetic acid recrystallised from DMSO/water and then treated with potassium carbonate and citric acid as described above in Example 1, step 4a) were measured by laser diffraction and compared.

pKa of the acid = test: pKa of the acid
Excerpt: The term “weak acid” as used in step (ii) of the method is a term known in the art, and means an acid that partially dissociates in an aqueous solution.

Solubility in solvents = conditions: in most solvents

Cc1c(Cc2ccc3ccccc3n2)c2cc(F)ccc2n1CC(=O)O [(5-fluoro-2-methyl-3-quinolin-2-ylmethyl-indol-1-yl)-acetic acid]
diameter of 90% of the crystals ([1]; recrystallised from DMSO/water): 50-70 μm
pKa (pKa of the acid): 2.8
solubility (Solubility in solvents): sparingly soluble in most solvents

Cc1c(Cc2ccc3ccccc3n2)c2cc(F)ccc2n1CC(=O)O [Product A, (5-fluoro-2-methyl-3-quinolin-2-ylmethylindo-1-yl)-acetic acid]
Particle Diameter, 10% particles under given diameter ([1]; listed as A): 11.93 μm
Particle Diameter, 10% particles under given diameter ([1]; listed as product A): less than 10 μm
Particle Diameter, 50% particles under given diameter [1]: 30.13 μm
Particle Diameter, 90% particles under given diameter ([1]; listed as A): 52.13 μm

Cc1c(Cc2ccc3ccccc3n2)c2cc(F)ccc2n1CC(=O)O [Product B, (5-fluoro-2-methyl-3-quinolin-2-ylmethylindo-1-yl)-acetic acid]
Particle Diameter, 10% particles under given diameter ([1]; listed as B (Batch 1)): 0.10 μm
Particle Diameter, 10% particles under given diameter ([1]; listed as B (Batch 2)): 0.20 μm
Particle Diameter, 10% particles under given diameter ([1]; listed as B (Batch 3)): 0.11 μm
Particle Diameter, 50% particles under given diameter ([1]; listed as B (Batch 1)): 0.27 μm
Particle Diameter, 50% particles under given diameter ([1]; listed as B (Batch 2)): 0.37 μm
Particle Diameter, 50% particles under given diameter ([1]; listed as B (Batch 3)): 0.31 μm
Particle Diameter, 90% particles under given diameter ([1]; listed as B (Batch 1)): 0.92 μm
Particle Diameter, 90% particles under given diameter ([1]; listed as B (Batch 2)): 0.80 μm
Particle Diameter, 90% particles under given diameter ([1]; listed as B (Batch 3)): 1.53 μm
Particle Diameter, 90% particles under given diameter ([1]; listed as product B): less than 2 μm
